Results from ChEMBL document CHEMBL1201862, “PubChem BioAssay data set” (2004).
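Test compounds were applied to cells in 96-well plates for 48 hours at 5 doses. GI50 marks 50% less growth.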 The source made the active and inactive calls. Rule as the data show it: active = GI50 up to about 1.1 µM and inactive = higher.

Experiments:
Test in all cases: growth of human tumour cells (NCI), 48 h
[1] = test system: BT-549
[2] = test system: CAKI-1
[3] = test system: CCRF-CEM
[4] = test system: COLO 205
[5] = test system: K562
[6] = test system: MDA-MB-231
[7] = test system: MOLT-4
[8] = test system: NCI-H522
[9] = test system: NCI/ADR-RES
[10] = test system: OVCAR-3
[11] = test system: OVCAR-4
[12] = test system: OVCAR-8
[13] = test system: SF-295
[14] = test system: SN12C
[15] = test system: SNB-75
[16] = test system: SR
[17] = test system: T47D
[18] = test system: UO-31

Row | SMILES | GI50 [1] | GI50 [2] | GI50 [3] | GI50 [4] | GI50 [5] | GI50 [6] | GI50 [7] | GI50 [8] | GI50 [9] | GI50 [10] | GI50 [11] | GI50 [12] | GI50 [13] | GI50 [14] | GI50 [15] | GI50 [16] | GI50 [17] | GI50 [18]
1 | CC(=N\c1ccncc1)/C(C)=N/c1ccncc1 | 23.3 µM (inactive) | 16.8 µM (inactive) | 25.8 µM (inactive) | 17 µM (inactive) | 31 µM (inactive) | 21.8 µM (inactive) | 24.4 µM (inactive) | 16.3 µM (inactive) | 34.4 µM (inactive) | 15.4 µM (inactive) | 11.4 µM (inactive) | 35.2 µM (inactive) | 73.5 µM (inactive) | 16.2 µM (inactive) | > 100 µM (inactive) | 27.1 µM (inactive) | 26.2 µM (inactive) | 17 µM (inactive)
2 | O=[N+]([O-])c1cc2oc(CSc3ccccc3)nc2cc1Cl | 23.4 µM (inactive) | 29 µM (inactive) | 37.5 µM (inactive) | 21.7 µM (inactive) | 36.2 µM (inactive) | 32.2 µM (inactive) | 22.3 µM (inactive) | 29.3 µM (inactive) | 12.9 µM (inactive) | 30 µM (inactive) | 34.4 µM (inactive) | 33.5 µM (inactive) | 28.2 µM (inactive) | 29.9 µM (inactive) | 26.1 µM (inactive) | 33.3 µM (inactive) | 24.9 µM (inactive) | 35.9 µM (inactive)
3 | CC1CCC2C(C)C3C(CC4C5CC=C6CC(OC7OC(CO)C(O)C(OC8OC(CO)C(O)C(O)C8O)C7OC7OC(C)C(O)C(O)C7O)CCC6(C)C5CCC43C)N2C1 (stereo unspecified) | 16.5 µM (inactive) | 11.3 µM (inactive) | 9.66 µM (inactive) | 16.7 µM (inactive) | 16 µM (inactive) | 13.6 µM (inactive) | 28.6 µM (inactive) | 15.1 µM (inactive) | 17.9 µM (inactive) | 17.4 µM (inactive) | 8.13 µM (inactive) | 15 µM (inactive) | 10.2 µM (inactive) | 11.1 µM (inactive) | 9.57 µM (inactive) | 15.1 µM (inactive) | 19.3 µM (inactive) | 6.37 µM (inactive)
4 | C[n+]1c2ccccc2n2c3ccccc3c(NCCCN3CCOCC3)c(C#N)c21 | 12 µM (inactive) | 2.45 µM (inactive) | 8.17 µM (inactive) | 0.891 µM (active) | 1.73 µM (inactive) | 0.804 µM (active) | 0.498 µM (active) | 0.652 µM (active) | > 41.4 µM (inactive) | 2.61 µM (inactive) | 1.56 µM (inactive) | 0.843 µM (active) | 2.8 µM (inactive) | 0.597 µM (active) | 2.23 µM (inactive) | 2.81 µM (inactive) | 2.32 µM (inactive) | 2.95 µM (inactive)
5 | CC1=CC=C2c3ccccc3C=CN2C(=O)C1 | 18.9 µM (inactive) | 56.5 µM (inactive) | 38.8 µM (inactive) | 42.5 µM (inactive) | 37.8 µM (inactive) | 40.5 µM (inactive) | 25.6 µM (inactive) | 43.3 µM (inactive) | 38.7 µM (inactive) | 95.3 µM (inactive) | > 100 µM (inactive) | 56.5 µM (inactive) | > 100 µM (inactive) | 63.5 µM (inactive) | 38.4 µM (inactive) | 40.7 µM (inactive) | 32.4 µM (inactive) | 30.9 µM (inactive)
6 | CC[C@@H](/C=C\CCC(=O)C[C@H](O)CCC=C(C)C)O[Si](C(C)C)(C(C)C)C(C)C | > 100 µM (inactive) | > 100 µM (inactive) | 80.4 µM (inactive) | 71.6 µM (inactive) | 54.5 µM (inactive) | > 100 µM (inactive) | > 100 µM (inactive) | 48.6 µM (inactive) | > 100 µM (inactive) | > 100 µM (inactive) | > 100 µM (inactive) | > 100 µM (inactive) | > 100 µM (inactive) | > 100 µM (inactive) | > 100 µM (inactive) | 39.4 µM (inactive) | 55.5 µM (inactive) | > 100 µM (inactive)
7 | CC(NC(=O)C1(N)CCCC1)C(=O)O (stereo unspecified) | > 100 µM (inactive) | > 100 µM (inactive) | > 100 µM (inactive) | > 100 µM (inactive) | > 100 µM (inactive) | > 100 µM (inactive) | > 100 µM (inactive) | > 100 µM (inactive) | > 100 µM (inactive) | > 100 µM (inactive) | > 100 µM (inactive) | > 100 µM (inactive) | > 100 µM (inactive) | > 100 µM (inactive) | > 100 µM (inactive) | > 100 µM (inactive) | > 100 µM (inactive) | > 100 µM (inactive)
